Experimental data as given in patent US9815831B2, “3,5-disubstituted-3H-imidazo[4,5-B]pyridine and 3,5-disubstituted-3H-[1,2,3]triazolo[4,5-B] pyridine compounds as modulators of c-Met protein kinases” (Rhizen Pharmaceuticals SA, priority 2012, dated 2017).
Where a name gives a salt, the structure may show the parent alone. Read-outs that look alike come from different tables or passages of the source.

Legend:
MKN-45 = test: Inhibition of MKN-45 proliferation (MTT); assay type: cell-based, human; settings: Homo sapiens; for inhibition at 0.1 µM: 100 nM, read-out: MKN45 % inhibition @ 100 nM; for GI50: read-out: MKN45 GI50
Description: 3. Inhibition of MKN-45 Proliferation:
Cell proliferation assays were carried out using the high Met expressing human gastric adenocarcinoma cell line, MKN-45, according to the following schedule: • Day 1: Cells were plated in 96-well plates in complete growth medium. • Day 2: Compounds at desired concentrations were added. • Day 5: Cell viability was determined using the 3-[4,5-dimethylthiazol-2-yl]-2,5-diphenyltetrazolium bromide (MTT) dye reduction test. Results: The results are as given as % Inhibition of MKN-45 proliferation at 100 nM and GI50 values in Table 4A to 4C above. 4. Inhibition of c-Met Kinase Phosphorylation in MKN-45 Cells: […]

[1] = target: T1, human recombinant Met kinase (Homo sapiens, UniProt P08581); test: Colorimetric determination of c-Met kinase activity (HTScan Met Kinase Assay Kit); assay type: biochemical; settings: for inhibition at 0.1 µM: 100 nM (cells without *), read-out: c-Met Enzyme % inhibition @ 100 nM; for inhibition: cells marked *: tested @ 300 nM, read-out: c-Met Enzyme % inhibition
T1 construct: purchased Cell Signalling Technology, Beverly, Mass
Description: 1. MET Kinase Assay Protocol:
Colorimetric Determination of c-Met Kinase Activity
The receptor tyrosine kinase c-Met is a heterodimeric transmembrane glycoprotein involved in several cellular processes that aid in tumor progression. Phosphorylation of the tyrosine residues in the c-Met kinase domain is critical for its activity and the resulting down-stream effects. The colorimetric assay allows detection of the phosphorylated form of a biotinylated peptide upon activation of human recombinant Met kinase.
MET Kinase Assay Protocol:
c-Met Kinase activity shall be determined using an HTScan® Met Kinase Assay Kit (Cell Signalling Technology, Beverly, Mass.) with modifications. All incubations are carried out at room temperature. Briefly, 12.5 μl of a 4× reaction cocktail (DTT/Kinase buffer containing appropriate quantity of human Met kinase) is added to each well of a 96-well plate containing 12.5 μl pre-diluted compound of interest and incubated for 5 minutes. After the initial incubation, 25 μl/well of 2×ATP/biotinylated peptide is added and incubated for an additional 30 minutes. The reaction is terminated by the addition of 50 μl/well stop buffer (50 mM EDTA, pH 8.0). The reaction mixture (25 μl/well) is then transferred to a streptavidin coated plate (Perkin Elmer, Cat#4009-0010) containing 75 μl dH2O and incubated for 60 minutes. The plate is washed with 200 μl/well wash buffer (1×PBS, 0.05% Tween-20). After washing, 100 μl/well phospho-tyrosine mAb (1:1000 in wash buffer containing 1% BSA) is added and incubated for 60 minutes. After another round of washes, 100 μl/well europium labelled anti-mouse IgG (1:500 in wash buffer containing 1% BSA) is added and incubated for an additional 30 minutes. Following additional washes, 100 μl/well Delfia^(R) enhancement solution (Perkin Elmer, Cat#1244-105) is added and incubated for 45 minutes. Florescence is measured on a microplate reader (BMG Labtech., Germany) at 340 nm (excitation) and 615 nm (emission) for calculating % inhibition. Data generated can be analyzed further using Graphpad Prism (Graphpad software, San Diego Calif.) for determination of IC50.
Results: The results are as given below in Table 4A, 4B and 4C as % Inhibition or IC50 of c-Met

[2] = MKN-45, Table 4B, MKN-45 proliferation
[3] = MKN-45, Table 4C, MKN-45 proliferation
[4] = MKN-45, Table 4A, MKN-45 proliferation

T1 sequence (P08581 25-1390): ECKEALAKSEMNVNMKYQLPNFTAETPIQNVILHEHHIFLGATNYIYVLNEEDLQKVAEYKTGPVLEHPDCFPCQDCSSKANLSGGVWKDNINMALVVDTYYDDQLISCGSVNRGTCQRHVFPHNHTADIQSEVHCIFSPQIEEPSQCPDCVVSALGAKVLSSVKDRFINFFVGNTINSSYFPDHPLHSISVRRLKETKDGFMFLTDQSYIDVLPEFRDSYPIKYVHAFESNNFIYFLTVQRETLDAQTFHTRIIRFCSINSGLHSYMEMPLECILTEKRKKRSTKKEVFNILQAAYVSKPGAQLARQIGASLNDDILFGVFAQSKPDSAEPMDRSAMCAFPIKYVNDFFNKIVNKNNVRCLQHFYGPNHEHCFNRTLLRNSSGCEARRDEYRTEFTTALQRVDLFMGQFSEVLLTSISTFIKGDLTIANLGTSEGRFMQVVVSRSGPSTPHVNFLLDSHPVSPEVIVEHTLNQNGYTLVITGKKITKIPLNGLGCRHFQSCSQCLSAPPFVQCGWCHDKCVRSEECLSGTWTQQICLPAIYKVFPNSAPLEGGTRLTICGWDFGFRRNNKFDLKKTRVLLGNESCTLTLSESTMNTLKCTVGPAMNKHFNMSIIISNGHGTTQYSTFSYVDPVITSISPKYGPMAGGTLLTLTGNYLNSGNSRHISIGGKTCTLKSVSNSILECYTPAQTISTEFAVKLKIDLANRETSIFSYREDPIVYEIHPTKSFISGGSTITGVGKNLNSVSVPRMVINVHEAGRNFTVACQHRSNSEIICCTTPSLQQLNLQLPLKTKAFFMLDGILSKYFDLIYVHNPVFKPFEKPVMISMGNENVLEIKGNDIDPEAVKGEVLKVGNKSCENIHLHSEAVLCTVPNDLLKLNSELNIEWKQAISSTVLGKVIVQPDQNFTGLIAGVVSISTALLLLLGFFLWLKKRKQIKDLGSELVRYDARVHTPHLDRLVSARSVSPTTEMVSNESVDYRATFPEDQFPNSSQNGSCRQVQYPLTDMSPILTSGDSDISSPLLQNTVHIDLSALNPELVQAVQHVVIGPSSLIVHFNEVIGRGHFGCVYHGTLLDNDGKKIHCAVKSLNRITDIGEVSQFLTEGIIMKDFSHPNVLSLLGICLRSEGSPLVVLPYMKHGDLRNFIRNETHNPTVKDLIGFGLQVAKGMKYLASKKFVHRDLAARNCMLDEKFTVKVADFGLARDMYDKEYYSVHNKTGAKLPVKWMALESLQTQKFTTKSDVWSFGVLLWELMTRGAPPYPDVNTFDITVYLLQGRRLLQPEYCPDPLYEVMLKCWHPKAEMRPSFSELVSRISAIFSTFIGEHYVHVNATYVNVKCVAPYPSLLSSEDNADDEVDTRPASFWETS

| SMILES | inhibition at 0.1 µM ([1]; Table 4A) | inhibition at 0.1 µM (MKN-45; [4]) | GI50 (MKN-45; [4]) | also measured |
| --- | --- | --- | --- | --- |
| NC(=O)CNC(=O)c1ccc(-c2ccc3nnn(Cc4ccc5cccnc5c4)c3n2)cc1 [Example 1, N-(2-amino-2-oxoethyl)-4-(3-(quinolin-7-ylmethyl)-3H-[1,2,3]triazolo[4,5-b]pyridin-5-yl) benzamide] | 75 to 100% |  |  | inhibition at 0.1 µM (MKN-45; MKN-45, Table 4A, cell printed as a number, not a class letter): 0% |
| C/C(=N\NC(N)=S)c1ccc2ncn(Cc3ccc4ncccc4c3)c2n1 [Example 108, 2-(1-(3-(quinolin-6-ylmethyl)-3H-imidazo[4,5-b]pyridin-5-yl)ethylidene)hydrazinecarbothioamide] |  |  |  | inhibition at 0.1 µM (MKN-45; [2]): < 25%; inhibition ([1]; Table 4B): < 25% |
| Cc1cc(-c2ccc3ncn(Cc4ccc5ncccc5c4)c3n2)ccc1C(N)=O [Example 1018, 2-methyl-4-(3-(quinolin-6-ylmethyl)-3H-imidazo[4,5-b]pyridin-5-yl) benzamide] |  |  |  | inhibition at 0.1 µM (MKN-45; [3]): 25 to 50%; inhibition ([1]; Table 4C): 50 to 75% |
| CNC(=O)c1ccc(-c2ccc3ncn(Cc4ccc5ncccc5c4)c3n2)cc1Cl [Example 1017, 2-chloro-N-methyl-4-(3-(quinolin-6-ylmethyl)-3H-imidazo[4,5-b]pyridin-5-yl)benzamide] |  |  |  | inhibition at 0.1 µM (MKN-45; [3]): < 25%; inhibition ([1]; Table 4C): 25 to 50% |
| CC(C)(O)CONC(=O)c1ccc(-c2ccc3nnn(Cc4ccc5ncccc5c4)c3n2)cc1F [Example 35, 2-fluoro-N-(2-hydroxy-2-methylpropoxy)-4-(3-(quinolin-6-ylmethyl)-3H-[1,2,3]triazolo[4,5-b]pyridin-5-yl)benzamide] | 75 to 100% | 75 to 100% | 25 to 50 nM |  |
| C/C(=N\Nc1ccccn1)c1ccc2nnn(Cc3ccc4ncccc4c3)c2n1 [Example 51, 6-((5-(1-(2-(pyridin-2-yl)hydrazono)ethyl)-3H-[1,2,3]triazolo[4,5-b]pyridin-3-yl)methyl)quinoline] |  | < 25% |  | inhibition ([1]; Table 4A): < 25% |
| CC(O)CONC(=O)c1ccc(-c2ccc3nnn(Cc4ccc5ncccc5c4)c3n2)cc1Cl (centres unmarked) [Example 28, 2-chloro-N-(2-hydroxypropoxy)-4-(3-(quinolin-6-ylmethyl)-3H-[1,2,3]triazolo[4,5-b]pyridin-5-yl)benzamide] | 75 to 100% | 75 to 100% | 25 to 50 nM |  |
| CONC(=O)c1c(F)cc(-c2ccc3ncn(Cc4ccc5ncccc5c4)c3n2)cc1F [Example 105, 2,6-difluoro-N-methoxy-4-(3-(quinolin-6-ylmethyl)-3H-imidazo[4,5-b]pyridin-5-yl)benzamide] |  |  |  | inhibition at 0.1 µM (MKN-45; [2]): < 25%; inhibition ([1]; Table 4B): 25 to 50% |
| O=C(NOCCO)c1ccc(-c2ccc3nnn(Cc4ccc5ncccc5c4)c3n2)cc1C(F)(F)F [Example 23, N-(2-hydroxyethoxy)-4-(3-(quinolin-6-ylmethyl)-3H-[1,2,3]triazolo[4,5-b]pyridin-5-yl)-2-(trifluoromethyl)benzamide] | 75 to 100% | 75 to 100% | 50 to 100 nM |  |
| CCOC(=O)CONC(=O)c1ccc(-c2ccc3nnn(Cc4ccc5ncccc5c4)c3n2)cc1Cl [Example 29, ethyl 2-(2-chloro-4-(3-(quinolin-6-ylmethyl)-3H-[1,2,3]triazolo[4,5-b]pyridin-5-yl)benzamidooxy)acetate] | 75 to 100% | < 25% | 100 to 250 nM |  |
| CC(C)(O)CONC(=O)c1c(F)cc(-c2ccc3nnn(Cc4ccc5ncccc5c4)c3n2)cc1F [Example 34, 2,6-difluoro-N-(2-hydroxy-2-methylpropoxy)-4-(3-(quinolin-6-ylmethyl)-3H-[1,2,3]triazolo[4,5-b]pyridin-5-yl)benzamide] | 75 to 100% | 75 to 100% | 25 to 50 nM |  |
| Cc1cc(-c2ccc3ncn(Cc4ccc5ncccc5c4)c3n2)ccc1C(=O)NOCC(C)(C)O [Example 112, N-(2-Hydroxy-2-methyl-propoxy)-2-methyl-4-(3-quinolin-6-ylmethyl-3H-imidazo[4,5-b]pyridin-5-yl)-benzamide] |  |  |  | inhibition at 0.1 µM (MKN-45; [2]): < 25%; inhibition at 0.1 µM ([1]; Table 4B): 75 to 100% |
| Cc1nc2ccc(-c3ccc(C(N)=O)c(Cl)c3)nc2n1Cc1ccc2ncccc2c1 [Example 1020, 2-chloro-4-(2-methyl-3-(quinolin-6-ylmethyl)-3H-imidazo[4,5-b]pyridin-5-yl)benzamide] |  |  |  | inhibition at 0.1 µM (MKN-45; [3]): 50 to 75%; inhibition ([1]; Table 4C): < 25% |
| Cc1cc(-c2ccc3nnn(Cc4ccc5ncccc5c4)c3n2)ccc1C(=O)NOC(C)(C)CO [Example 39, N-(1-hydroxy-2-methylpropan-2-yloxy)-2-methyl-4-(3-(quinolin-6-ylmethyl)-3H-[1,2,3]triazolo[4,5-b]pyridin-5-yl)benzamide] | 75 to 100% | 75 to 100% |  |  |
| O=C(NOCCO)c1ccc(-c2ccc3nnn(Cc4cc5cccnc5cc4F)c3n2)cc1C(F)(F)F [Example 24, 4-(3-((7-fluoroquinolin-6-yl)methyl)-3H-[1,2,3]triazolo[4,5-b]pyridin-5-yl)-N-(2-hydroxyethoxy)-2-(trifluoromethyl)benzamide] | 75 to 100% | 75 to 100% | 25 to 50 nM |  |
| O=C(NOCCO)c1ccc(-c2ccc3nnn(Cc4cc5cccnc5cc4F)c3n2)cc1F [Example 27, 2-fluoro-4-(3-((7-fluoroquinolin-6-yl)methyl)-3H-[1,2,3]triazolo[4,5-b]pyridin-5-yl)-N-(2-hydroxyethoxy)benzamide] | 75 to 100% | 75 to 100% | 25 to 50 nM |  |
| NC(=O)c1ccc(-c2ccc3ncn(Cc4c(F)cc5ncccc5c4F)c3n2)cc1C(F)(F)F [Example 1028, 4-[3-(5,7-Difluoro-quinolin-6-ylmethyl)-3H-imidazo[4,5-b]pyridin-5-yl]-2-trifluoromethyl-benzamide] |  |  |  | inhibition at 0.1 µM (MKN-45; [3]): 75 to 100%; inhibition at 0.1 µM ([1]; Table 4C): 75 to 100% |
| Cc1cc(-c2ccc3ncn(Cc4ccc5ncccc5c4)c3n2)ccc1C(=O)NOCCO [Example 111, N-(2-Hydroxy-ethoxy)-2-methyl-4-(3-quinolin-6-ylmethyl-3H-imidazo[4,5-b]pyridin-5-yl)-benzamide] |  |  |  | inhibition at 0.1 µM (MKN-45; [2]): < 25%; inhibition at 0.1 µM ([1]; Table 4B): 75 to 100% |
| CC(=O)OCCONC(=O)c1ccc(-c2ccc3nnn(Cc4ccc5ncccc5c4)c3n2)cc1C [Example 43, 2-(2-methyl-4-(3-(quinolin-6-ylmethyl)-3H-[1,2,3]triazolo[4,5-b]pyridin-5-yl)benzamidooxy)ethyl acetate] | 75 to 100% |  |  |  |
| Cc1cc(-c2ccc3nnn(Cc4ccc5[nH]c(=O)ccc5c4)c3n2)ccc1C(=O)NOCC(C)(C)O [Example 37, N-(2-hydroxy-2-methylpropoxy)-2-methyl-4-(3-((2-oxo-1,2-dihydroquinolin-6-yl)methyl)-3H-[1,2,3]triazolo[4,5-b]pyridin-5-yl)benzamide] | 50 to 75% |  |  |  |
| Cc1cc(-c2ccc3nnn(Cc4ccc5ncccc5c4)c3n2)ccc1C(=O)NOCCOC(=O)C(C)(C)C [Example 45, 2-(2-methyl-4-(3-(quinolin-6-ylmethyl)-3H-[1,2,3]triazolo[4,5-b]pyridin-5-yl)benzamidooxy)ethyl pivalate] | 75 to 100% |  |  |  |
| CN(C)CCCNC(=O)c1ccc(-c2ccc3nnn(Cc4ccc5ncccc5c4)c3n2)cc1 [Example 68, N-(3-Dimethylamino-propyl)-4-(3-quinolin-6-ylmethyl-3H-[1,2,3]triazolo[4,5-b]pyridin-5-yl)-benzamide dihydrochloride] | 75 to 100% |  |  |  |
